In one series the test system is cells. The series is described as follows: Cytotoxicity test (MTT). The series is classed as cell-based. To be noted: 10^−6M, 72 hrs, compared with the control group. As for the experimental part:
Cytotoxic effect of benzamidine derivatives was evaluated by the experiment described below.
The test substance was diluted in appropriate solvent at 10^−2M concentration. […] Cells to be used in cytotoxitic test were plated on a 96-well microplate in a dose of 1×10^4 cell/100 μL per well and cultured for 72 hrs. 25 μL of MTT [3-(4,5-dimethyl-2-thiazolyl)-2,5-diphenyl-2H-tetrazolium bromide] dissolved in PBS at 2 mg/mL were added before 4 hrs of the end of culture. After reaction, the plates were centrifuged, medium was decanted and 100 μL of DMSO was added to dissolve formazan. Lastly, the absorbance of developed plates was measured at 540 nm.

Series [1] has as its system osteoclast differentiation. Briefly: Inhibitory effects on osteoclast differentiation (co-culture of bone marrow cells with osteoblast, TRAP staining). The series is classed as cell-based, mice. To be noted: for inhibition at 1 µM: Mus musculus, Osteoclast, 168 h, read-out: % inhibitory activity on osteoclastogenesis. Summed up:
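Bone marrow cells from 6–8-week male ddY mice co-cultured with neonatal ICR mouse calvarial osteoblasts in α-MEM/FBS with dexamethasone (10^−7M) and vitamin D3 (10^−8M) for 7 days, compound and medium renewed every 2–3 days. TRAP-positive cells with ≥3 nuclei counted; inhibition given as percent of control.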

The mark [2] stands for this setting: 1 μm, co-culture of bone marrow cells and osteoblast, 7 days, TRAP-positive osteoclasts versus controls.
Setting [3] is: 1 m, co-culture of bone marrow cells and osteoblast, 7 days, TRAP-positive osteoclasts versus controls.
The mark [4] stands for this setting: co-culture of bone marrow cells and osteoblast, 7 days, TRAP-positive osteoclasts versus controls.

Like-named read-outs stand apart in the source and are kept apart here.

For `N=C(NO)c1ccc(OCCCCCOc2ccc(-c3csc(C4CCCCC4)n3)cc2)cc1` [Example 8, N-hydroxy-4-(5-[4-(2-cyclohexyl-1,3-thiazol-4-yl)phenoxy]pentoxy)-benzamidine], the “Survival rates of the cells” value was determined as 76.9% in the series with cells (MC3T3-E1 cells) and 46.2% with cells (ST2 cells). The inhibition at 1 µM in series [1] (setting [2]) was 88.3%.
Take `Cc1sc(C(C)(C)C)nc1-c1ccc(OCCCCCOc2ccc(C(=N)NO)cc2)cc1` [Example 16, N-hydroxy-4-(5-[4-(2-t-butyl-5-methyl-1,3-thiazol-4-yl)phenoxy]pentoxy)-benzamidine]: the “Survival rates of the cells” value in the series with cells (MC3T3-E1 cells) came to 39.6%; in the series with cells (ST2 cells), 30.1%. Also, the inhibition at 1 µM in series [1] turned out to be 64.3%.
Turning to `CCCCc1sc(C(C)C)nc1-c1ccc(OCCCCCOc2ccc(C(=N)NO)cc2)cc1` [Example 32, N-hydroxy-4-(5-[4-(5-butyl-2-isopropyl-1,3-thiazol-4-yl)phenoxy]pentoxy)-benzamidine], the entries for the “Survival rates of the cells” value in the series with cells (MC3T3-E1 cells) and in the series with cells (ST2 cells) were 100.0% and 55.1%, respectively. Further, the inhibition at 1 µM in series [1] (setting [2]) stood at 59.4%.
`CCCCc1sc(C2CCCCC2)nc1-c1ccc(OCCCCCOc2ccc(C(=N)NO)cc2)cc1` [Example 35, N-hydroxy-4-(5-[4-(5-butyl-2-cyclohexyl-1,3-thiazol-4-yl)phenoxy]pentoxy)-benzamidine]: the “Survival rates of the cells” value is listed as 73.6% with cells (MC3T3-E1 cells) and 56.3% with cells (ST2 cells). Moreover, the inhibition at 1 µM in series [1] was 69.8%.
Consider `CCCCc1sc(C(C)(C)C)nc1-c1ccc(OCCCCCOc2ccc(C(=N)NO)cc2)cc1` [Example 37, N-hydroxy-4-(5-[4-(5-butyl-2-t-butyl-1,3-thiazol-4-yl)phenoxy]pentoxy)-benzamidine], for which the “Survival rates of the cells” value was 74.4% with cells (MC3T3-E1 cells) and 40.5% with cells (ST2 cells). Further, the inhibition at 1 µM in series [1] was 52.9%.
Regarding `Cc1nc(-c2ccc(OCCC(C)(O)CCOc3ccc(C(=N)NO)cc3)cc2)c(C(C)C)s1` (stereo not drawn) [Example 179, N-hydroxy-4-(3-hydroxy-5-[4-(5-isopropyl-2-methyl-1,3-thiazol-4-yl)-phenoxy]-3-methyl-pentoxy)-benzamidine], in series [1] (setting [3]), the inhibition at 1 µM was found to be 100%.
Same read-out and setting: in the case of `Cc1nc(-c2ccc(OCC(C)NCCOc3ccc(C(=N)NO)cc3)cc2)c(C(C)C)s1` (stereo not drawn) [Example 180, N-hydroxy-4-(2-[2-(4-(5-isopropyl-2-methyl-1,3-thiazol-4-yl)-phenoxy)-1-methyl-ethylamino]-ethoxy)-benzamidine] it was 32.6%; in that of `Cc1nc(-c2ccc(OCCCCC(=O)Nc3ccc(C(=N)NO)cc3)cc2)c(C(C)C)s1` [Example 182, N-hydroxy-4-(5-[4-(5-isopropyl-2-methyl-1,3-thiazol-4-yl)-phenoxy]-pentanoyl-amino)-benzamidine], 81.1%.
On the same count and under the same terms, in the case of `Cc1nc(-c2ccc(OCCCCCN(C)c3ccc(C(=N)NO)cc3)cc2)c(C(C)C)s1` [Example 183, N-hydroxy-4-(5-[4-(5-isopropyl-2-methyl-1,3-thiazol-4-yl)-phenoxy]-pentyl-methyl-amino)-benzamidine] it was 65.6%.
As for `Cc1nc(-c2ccc(OCCNCCOc3ccc(C(=N)NO)cc3)cc2)c(C(C)C)s1` [Example 186, N-hydroxy-4-(2-[2-(4-(5-isopropyl-2-methyl-1,3-thiazol-4-yl)phenoxy)-ethylamino]-ethoxy)-benzamidine], the inhibition at 1 µM in series [1] (setting [3]) is 71%.
For `COc1cc(C(=N)NO)ccc1OCCCCCOc1ccc(-c2nc(C)sc2C(C)C)cc1` [Example 189, N-hydroxy-4-(5-[4-(5-isopropyl-2-methyl-1,3-thiazol-4-yl)-phenoxy]-pentoxy-3-methoxy)-benzamidine], in series [1] (setting [4]), the “% inhibitory activity on osteoclastogenesis” value (“% inhibitory activity” below) is recorded as 38.7%.
For `Cc1nc(-c2ccc(OCCCCCOc3ccc(C(=N)NO)c(NC4CCCCC4)c3)cc2)c(C(C)C)s1` [Example 190, N-hydroxy-2-cyclohexylamino-4-(5-[4-(5-isopropyl-2-methyl-1,3-thiazol-4-yl)-phenoxy]-pentoxy)-benzamidine], the inhibition at 1 µM in series [1] (setting [3]) amounted to 27.3%.
On to `Cc1nc(-c2ccc(OCCCCCOc3ccc(C(=N)NO)cc3)cc2F)c(C(C)C)s1` [Example 191, N-hydroxy-4-(5-[3-fluoro-4-(5-isopropyl-2-methyl-1,3-thiazol-4-yl)-phenoxy]-pentoxy)-benzamidine], for which the inhibition at 1 µM in series [1] (setting [3]) was 8.8%.
Still for that read-out and setting: then `Cc1nc(-c2ccc(OCCCCCOc3ccc(C(=N)NO)c(F)c3)cc2F)c(C(C)C)s1` [Example 192, N-hydroxy-2-fluoro-4-(5-[3-fluoro-4-(5-isopropyl-2-methyl-1,3-thiazol-4-yl)-phenoxy]-pentoxy)-benzamidine], with 70.5%.
Regarding `Cc1nc(-c2ccc(OCCCOc3ccc(C(=N)NO)cc3)cc2)c(C(C)C)s1` [Example 193, N-hydroxy-4-(3-[4-(5-isopropyl-2-methyl-1,3-thiazol-4-yl)phenoxy]propoxy)-benzamidine], the inhibition at 1 µM in series [1] (setting [3]) is 54.1%.
As for `Cc1nc(-c2ccc(OCCCCOc3ccc(C(=N)NO)cc3)cc2)c(C(C)C)s1` [Example 194, N-hydroxy-4-(4-[4-(5-isopropyl-2-methyl-1,3-thiazol-4-yl)phenoxy]butoxy)-benzamidine], the inhibition at 1 µM in series [1] (setting [3]) was determined as 19.8%.
As for `Cc1nc(-c2ccc(OCCCCCNc3cccc(C(=N)NO)c3)cc2)c(C(C)C)s1` [Example 195, N-hydroxy-3-(5-[4-(5-isopropyl-2-methyl-thiazol-4-yl)-phenoxy]-pentylamino)-benzamidine], the inhibition at 1 µM in series [1] (setting [3]) stood at 42.3%.
`CCc1sc(C2CCCCC2)nc1-c1ccc(OCCCCOc2ccc(C(=N)NO)cc2)cc1` [Example 196, N-hydroxy-4-(4-[4-(2-cyclohexyl-5-ethyl-thiazol-4-yl)-phenoxy]-butoxy)-benzamidine]: the inhibition at 1 µM in series [1] (setting [3]) was found to be 82%.
`CCc1sc(N(C)CCO)nc1-c1ccc(OCCCCOc2ccc(C(=N)NO)cc2)cc1` [Example 198, N-hydroxy-4-(4-[4-(5-ethyl-2-[(2-hydroxyethyl)-methyl-amino]-thiazol-4-yl)phenoxy]butoxy)-benzamidine]: in series [1] (setting [3]), the inhibition at 1 µM was determined as 36.9%.
Turning to `CCc1sc(N(C)Cc2cccnc2)nc1-c1ccc(OCCCOc2ccc(C(=N)NO)cc2)cc1` [Example 199, N-hydroxy-4-(3-[4-(5-ethyl-2-[methyl-(pyridin-3-yl-methyl)amino]-thiazol-4-yl)phenoxy]propoxy)-benzamidine], the inhibition at 1 µM in series [1] (setting [3]) amounted to 82.9%.
Regarding `CCc1sc(N(C)Cc2cccnc2)nc1-c1ccc(OCCCCOc2ccc(C(=N)NO)cc2)cc1` [Example 200, N-hydroxy-4-(4-[4-(5-ethyl-2-[methyl-(pyridin-3-yl-methyl)amino]-thiazol-4-yl)phenoxy]butoxy)-benzamidine], in series [1] (setting [3]), the inhibition at 1 µM turned out to be 38.7%.
Same read-out and setting: then `CC(C)c1nc(-c2ccc(OCc3ccc(COc4ccc(C(=N)NO)cc4)cc3)cc2)c(CC2CCCC2)s1` [Example 201, N-hydroxy-4-(4-[4-(5-cyclopentylmethyl-2-isopropyl-thiazol-4-yl)-phenoxymethyl]-benzyloxy)-benzamidine], with 85.6%; and `CCCCc1sc(C(C)C)nc1-c1ccc(OCc2ccc(COc3ccc(C(=N)NO)cc3)cc2)cc1` [Example 202, N-hydroxy-4-(4-[4-(5-butyl-2-isopropyl-thiazol-4-yl)-phenoxymethyl]-benzyloxy)-benzamidine], with 85.6%.
As to `N=C(NO)c1ccc(OCc2ccc(COc3ccc(-c4nc(N)sc4CC4CCCC4)cc3)cc2)cc1` [Example 203, N-hydroxy-4-(4-[4-(5-cyclopentylnnethyl-2-amino-thiazol-4-yl)-phenoxymethyl]-benzyloxy)-benzamidine], the “% inhibitory activity” value in series [1] (setting [4]) is listed as 68.8%.
`Cc1nc(-c2ccc(OCCCCOc3ccc(C(=N)NO)c(F)c3)cc2)c(C(C)C)s1` [Example 207, N-hydroxy-2-fluoro-4-(5-[4-(5-isopropyl-2-methyl-thiazol-4-yl)-phenoxy]-butoxy)-benzamidine]: the “% inhibitory activity” value in series [1] (setting [4]) turned out to be 14.4%.
As for `Cc1nc(-c2ccc(OCc3cccc(COc4ccc(C(=N)NO)cc4)c3)cc2)c(C(C)C)s1` [Example 209, N-hydroxy-4-(3-[4-(5-isopropyl-2-methyl-thiazol-4-yl)-phenoxymethyl]-benzyloxy)-benzamidine], the inhibition at 1 µM in series [1] (setting [3]) is 14.3%.
On to `N=C(NO)c1ccc(OCc2ccc(COc3ccc(-c4nc(C5CCCCC5)sc4CC4CCCC4)cc3)cc2)cc1` [Example 210, N-hydroxy-4-(4-[4-(5-cyclopentylmethyl-2-cyclohexyl-thiazol-4-yl)-phenoxymethyl]-benzyloxy)-benzamidine], for which the inhibition at 1 µM in series [1] (setting [3]) is 68.8%.
On to `Cc1nc(-c2ccc(OCCCCCCOc3ccc(C(=N)NO)cc3)cc2)c(C(C)C)s1` [Example 211, N-hydroxy-4-(6-[4-(5-isopropyl-2-methyl-thiazol-4-yl)phenoxy]-hexyloxy)-benzamidine], for which the inhibition at 1 µM in series [1] (setting [3]) came to 44%.
As for `CCCOc1cc(OCCCCCOc2ccc(C(=N)NO)cc2)c(CC)cc1-c1csc(C)n1` [Example 213, N-hydroxy-4-(5-[2-ethyl-4-(2-methyl-thiazol-4-yl)-5-propoxy-phenoxy]-pentyloxy)-benzamidine], the inhibition at 1 µM in series [1] (setting [3]) was 91.8%.

The values are drawn from US8178688B2, “Benzamidine derivatives, process for the preparation thereof and pharmaceutical composition comprising the same” (Dong Wha Pharmaceutical Co., Ltd., priority 2004, dated 2012).
